In patent US12593845B2 (priority 2019, dated 2026):

How the values were obtained:
[1] = test system: wheat brown rust pathogen (Puccinia recondita); assay: Wheat brown rust control test; format: in vivo; details: 288 h, 125 ppm drug solution sprayed onto wheat seedlings (Norin 61), lesion area ratio 12 days after inoculation
Procedure: (§1) 5 parts by weight of the dihydropyrimidine compound of the present invention, 93.5 parts by weight of N,N-dimethylformamide, and 1.5 parts by weight of polyoxyethylene sorbitan monolaurate (TWEEN® 20) were mixed and dissolved to obtain an emulsion (I) including 5% of an active ingredient.
(§2) The control value was calculated by the following expression. Control value (%)=100−{lesion area ratio in treated group/lesion area ratio in untreated group}×100 [Expression 1]
Water was added to the emulsion (I) such that the concentration of the dihydropyrimidine compound reached 125 ppm to dissolve the emulsion, and a drug solution was obtained. Subsequently, the drug solution was sprayed onto wheat seedlings (variety: “Norin 61”, leaf stage: 1 to 2) cultivated in seedling pots. After air drying, uredospores of a wheat brown rust pathogen (Puccinia recondita) were sprinkled on wheat seedlings sprayed with the drug solution for inoculation (treated group). As a control, wheat seedlings that were not sprayed with the drug solution were inoculated in the same manner as described above (untreated group). The seedlings were left to stand in a greenhouse at 20° C.
On the 12 days after the inoculation, the leaves of the wheat seedlings were visually observed to determine the lesion area ratio, and the control value was calculated.

[2] = test system: wheat powdery mildew pathogen (Erysiphe graminis f. sp. tritici); assay: Wheat powdery mildew control test; format: in vivo; details: Blumeria graminis, 144 h; 125 ppm drug solution sprayed onto wheat seedlings (Chihoku); lesion area ratio 6 days after inoculation
Procedure: as §1, §2
Water was added to the emulsion (I) such that the concentration of the dihydropyrimidine compound reached 125 ppm to dissolve the emulsion, and a drug solution was obtained. Subsequently, the drug solution was sprayed onto wheat seedlings (variety: “Chihoku”, leaf stage: 1 to 2) cultivated in seedling pots. After air drying, conidiospores of a wheat powdery mildew pathogen (Erysiphe graminis f. sp. tritici) were sprinkled thereon for inoculation (treated group). As a control, wheat seedlings that were not sprayed with the drug solution were inoculated in the same manner as described above (untreated group). The seedlings were left to stand in a greenhouse at 20° C.
On the 6 days after the inoculation, the leaves of the wheat seedlings were visually observed to determine the lesion area ratio, and the control value was calculated.

[3] = test system: Aspergillus niger; assay: Antimicrobial test against Aspergillus niger; format: cell-based; details: 96 h, Vogel medium, 25° C., 4 days in the dark, turbidity at 405 nm, read-out: growth inhibition rate
How it was run: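 A. niger spores dispersed in Vogel medium with compound (DMSO solution) at 25 ppm, cultured in the dark at 25° C. for 4 days. Turbidity at 405 nm compared with untreated culture to give growth inhibition (%).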

[4] = test system: apple scab pathogen (Venturia inaequalis); assay: Apple scab control test; format: in vivo; details: 336 h, 125 ppm drug solution sprayed onto apple seedlings (Orin), lesion area ratio 2 weeks after inoculation
How it was run: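 Compound emulsion diluted in water to 125 ppm and sprayed on 3-4 leaf 'Orin' apple seedlings, which were inoculated with V. inaequalis conidiospores after drying and held humidified at 20° C, 12 h light/dark. Lesion area ratio scored 2 weeks post-inoculation; control value computed relative to unsprayed inoculated plants.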

[5] = test system: wheat powdery mildew pathogen (Erysiphe graminis f. sp. tritici); assay: Wheat powdery mildew seed treatment test; format: in vivo; details: Blumeria graminis, 168 h; seed treatment 100 g/100 kg wheat seeds (Chihoku); inoculation after 8 to 10 days; lesion area ratio 7 days after inoculation
Procedure: as §1, §2
The emulsion (I) was used to treat seeds such that (weight of dihydropyrimidine compound)/(weight of seeds) reached 100 g/100 kg based on the wheat seeds (variety: “Chihoku”). These seeds were disseminated in pots, and after 8 to 10 days, conidiospores of a wheat powdery mildew pathogen (Erysiphe graminis f. sp. tritici) were sprinkled thereon for inoculation (treated group). As a control, wheat seedlings that were not treated with the drug were inoculated in the same manner as described above (untreated group). The seedlings were left to stand in a greenhouse at 20° C.
(§3) On the 7 days after the inoculation, the leaves of the wheat seedlings were visually observed to determine the lesion area ratio, and the control value was calculated.

[6] = test system: Meloidogyne incognita; assay: Efficacy against Meloidogyne incognita; format: in vivo; details: 96 h, second-instar larvae (L2), 40 μL of 125 ppm drug solution added to 160 μL suspension per well, 20° C., 4 days, read-out: nematode mortality rate
Procedure: as §1
A suspension containing about 50/0.16 mL second-instar larvae (L2) of Meloidogyne incognita was poured into a 96-well microplate at 160 μL per well. Then, a drug solution prepared by adding water to the emulsion (I) so as to have a concentration of the dihydropyrimidine compound of 125 ppm was poured at 40 μL per well. The plate was left to stand under a 20° C. condition for 4 days.
Mortality was determined, and the nematode mortality rate was calculated. […] The test repeated twice.

[7] = test system: wheat powdery mildew pathogen (Erysiphe graminis f. sp. tritici); assay: Wheat powdery mildew soil irrigation treatment test; format: in vivo; details: Blumeria graminis, 168 h; soil irrigation with 10 ml of 100 ppm drug solution per pot, wheat (Chihoku); inoculation after 8 to 10 days; lesion area ratio 7 days after inoculation
Procedure: as §1, §2
Pots (5.5 cm×5.5 cm) in which wheat seeds (variety: “Chihoku”) were disseminated were irrigated with 10 ml of a drug solution prepared by adding water to the emulsion (I) so as to have a concentration of the dihydropyrimidine compound of 100 ppm. After 8 to 10 days, conidiospores of a wheat powdery mildew pathogen (Erysiphe graminis f. sp. tritici) were sprinkled thereon for inoculation (treated group). As a control, wheat seedlings that were not treated with the drug were inoculated in the same manner as described above (untreated group). The seedlings were left to stand in a greenhouse at 20° C.
as §3

[8] = test system: cucumber gray mold pathogen (Botrytis cinerea); assay: Cucumber gray mold control test; format: in vivo; details: 125 ppm drug solution sprayed onto cucumber seedlings (cotyledon stage); lesion area ratio 4 days after inoculation
Procedure: as §1, §2
Water was added to the emulsion (I) such that the concentration of the dihydropyrimidine compound reached 125 ppm to dissolve the emulsion, and a drug solution was obtained. Subsequently, the drug solution was sprayed onto cucumber seedlings (variety: “creeping” type, cotyledon stage) cultivated in seedling pots. After air drying, a suspension of conidiospores of a cucumber gray mold pathogen (Botrytis cinerea) was dropped thereon for inoculation (treated group). As a control, cucumber seedlings that were not sprayed with the drug solution were inoculated by dropping in the same manner as described above (untreated group). The seedlings were left to stand in a humidified room at 20° C.
On the 4 days after the inoculation, the leaves of the cucumber seedlings were visually observed to determine the lesion area ratio, and the control value was calculated.

`COc1ccc(F)cc1C(Cn1cc(/C(C)=N/OC(C)C)c(=O)n(C[C@H](C)NC(=O)C(C)C)c1=O)OC` (stereo partly drawn) [A-61] gave a pest or weed control at 125 ppm [1] of no less than 75%, a pest or weed control at 125 ppm [2] of no less than 75% and an inhibition at 25 ppm [3] of no less than 50%. For the same molecule, the pest or weed control at 125 ppm [4] was no less than 75% and the pest or weed control at 100 g/100 kg seed [5] was no less than 75%.

With `C=CCOC(Cn1cc(/C(C)=N/OCC)c(=O)n(CCNC(=O)C(C)C)c1=O)c1cc(F)ccc1OC` (stereo not drawn) [A-95] the pest or weed control at 125 ppm [1] was no less than 75%, the pest or weed control at 125 ppm [2] was no less than 75% and the inhibition at 25 ppm [3] was no less than 50%. It also gave a pest or weed control at 125 ppm [4] of no less than 75%.

Work on `COc1ccc(Br)cc1C(O)Cn1cc(/C(C)=N/OC(C)C)c(=O)n(C[C@H](C)NC(=O)C(C)C)c1=O` (stereo partly drawn) [C-145] yielded a mortality at 125 ppm [6] of no less than 60%.

For `COc1ccc(F)cc1C(Cn1cc(C=NOC(C)C)c(=O)n(C[C@H](C)NC(=O)C(C)C)c1=O)OCCC#N` (stereo partly drawn) [A-60], the pest or weed control at 125 ppm [1] was no less than 75%, the pest or weed control at 100 ppm [7] was no less than 75% and the pest or weed control at 125 ppm [2] was no less than 75%. The inhibition at 25 ppm [3] was no less than 50%, the pest or weed control at 125 ppm [4] was no less than 75% and the pest or weed control at 100 g/100 kg seed [5] was no less than 75%.

Molecule `CC[C@@H](Cn1c(=O)c(/C(C)=N/OC(C)C)cn(CC(O)c2ccccc2OC)c1=O)NC(=O)C(C)C` (stereo partly drawn) [C-92] has a mortality at 125 ppm [6] of no less than 60%.

With `COc1ccc(F)cc1C(Cn1cc(C=NOC(C)C)c(=O)n(C(C)C(=O)NC2CC2)c1=O)OCCC#N` (stereo not drawn) [A-80] the pest or weed control at 125 ppm [1] was no less than 75%, the pest or weed control at 125 ppm [2] was no less than 75% and the inhibition at 25 ppm [3] was no less than 50%. For the same molecule, the pest or weed control at 125 ppm [4] was no less than 75%.

With `CCON=Cc1cn(CC(OCCC#N)c2cc(F)ccc2OC)c(=O)n(C(C)C(=O)NC(C)C)c1=O` (stereo not drawn) [A-23] the pest or weed control at 125 ppm [1] was no less than 75%, the pest or weed control at 125 ppm [2] was no less than 75% and the inhibition at 25 ppm [3] was no less than 50%. It also gave a pest or weed control at 125 ppm [4] of no less than 75%.

`C=C1CCN(C(=O)C(C)n2c(=O)c(C=NOC(C)C)cn(CC(OCCC#N)c3cc(F)ccc3OC)c2=O)CC1` (stereo not drawn) [A-64] showed a pest or weed control at 125 ppm [1] of no less than 75% and a mortality at 125 ppm [6] of no less than 60%.

Work on `COc1ccc(F)cc1C(O)Cn1cc(C=NOC(C)C)c(=O)n(C(C)C(=O)NC(C)C)c1=O` (stereo not drawn) [A-93] yielded a pest or weed control at 125 ppm [1] of no less than 75%, a pest or weed control at 125 ppm [2] of no less than 75% and an inhibition at 25 ppm [3] of no less than 50%. For the same molecule, the pest or weed control at 125 ppm [4] was no less than 75%.

Molecule `COc1ccc(F)cc1C(Cn1cc(/C(C)=N/OC(C)C)c(=O)n(C[C@H](C)NC(=O)C(C)C)c1=O)OCCC#N` (stereo partly drawn) [A-63] has a pest or weed control at 125 ppm [1] of no less than 75%, a pest or weed control at 125 ppm [2] of no less than 75% and an inhibition at 25 ppm [3] of no less than 50%. The pest or weed control at 125 ppm [4] was no less than 75%.

Molecule `CCO/N=C(\C)c1cn(CC(OCCC#N)c2cc(F)ccc2OC)c(=O)n(CC(C)(C)C(=O)NC(C)C)c1=O` (stereo not drawn) [A-24] has a pest or weed control at 125 ppm [1] of no less than 75%, a pest or weed control at 125 ppm [2] of no less than 75% and an inhibition at 25 ppm [3] of no less than 50%. It also gave a pest or weed control at 125 ppm [4] of no less than 75%.

Work on `COc1ccc(F)cc1C(O)Cn1cc(C=NOC(C)C)c(=O)n(C[C@H](C)NC(=O)C(C)C)c1=O` (stereo partly drawn) [A-76] yielded a pest or weed control at 125 ppm [1] of no less than 75%, a pest or weed control at 100 ppm [7] of no less than 75% and a pest or weed control at 125 ppm [2] of no less than 75%. The inhibition at 25 ppm [3] was no less than 50%, the pest or weed control at 125 ppm [4] was no less than 75% and the pest or weed control at 100 g/100 kg seed [5] was no less than 75%.

Molecule `COc1ccc(F)cc1C(Cn1cc(/C(C)=N/OC(C)C)c(=O)n(CC(C)(C)C(=O)NC(C)C)c1=O)OCCC#N` (stereo not drawn) [A-1] has a pest or weed control at 125 ppm [1] of no less than 75%, a pest or weed control at 125 ppm [2] of no less than 75% and an inhibition at 25 ppm [3] of no less than 50%. For the same molecule, the pest or weed control at 125 ppm [4] was no less than 75%.

In the case of `COc1ccc(F)cc1C(Cn1cc(/C(C)=N/OC(C)C)c(=O)n(CCNC(=O)C(C)C)c1=O)OC` (stereo not drawn) [A-100], the pest or weed control at 125 ppm [1] was no less than 75%, the pest or weed control at 125 ppm [2] was no less than 75% and the inhibition at 25 ppm [3] was no less than 50%. For the same molecule, the pest or weed control at 125 ppm [4] was no less than 75%.

With `CON=C(C)c1cn(CC(O)c2cc(F)ccc2OC)c(=O)n(C(C)C(=O)NC(C)C)c1=O` (stereo not drawn) [A-28] the mortality at 125 ppm [6] was no less than 60%.

For `COc1ccc(F)cc1C(O)Cn1cc(/C(C)=N/OC(C)C)c(=O)n(C[C@H](C)NC(=O)C(C)C)c1=O` (stereo partly drawn) [A-75, N-((2S)-1-(3-(2-(5-fluoro-2-methoxyphenyl)-2-hydroxyethyl)-5-((E)-1-(isopropoxyimino)ethyl)-2,6-dioxo-3,6-dihydropyrimidin-1(2H)-yl)propan-2-yl)isobutyramide], the Control value [8] was no less than 75%, the pest or weed control at 100 ppm [7] was no less than 75% and the pest or weed control at 125 ppm [2] was no less than 75%. For the same molecule, the inhibition at 25 ppm [3] was no less than 50%, the pest or weed control at 125 ppm [4] was no less than 75% and the pest or weed control at 100 g/100 kg seed [5] was no less than 75%.
